{
  "source": "paper PMC4142572",
  "about": "(Bioorganic & medicinal chemistry letters, 2014)",
  "target": "hPDE4B (Homo sapiens, UniProt Q07343)",
  "sequence (Q07343 whole entry, canonical isoform)": "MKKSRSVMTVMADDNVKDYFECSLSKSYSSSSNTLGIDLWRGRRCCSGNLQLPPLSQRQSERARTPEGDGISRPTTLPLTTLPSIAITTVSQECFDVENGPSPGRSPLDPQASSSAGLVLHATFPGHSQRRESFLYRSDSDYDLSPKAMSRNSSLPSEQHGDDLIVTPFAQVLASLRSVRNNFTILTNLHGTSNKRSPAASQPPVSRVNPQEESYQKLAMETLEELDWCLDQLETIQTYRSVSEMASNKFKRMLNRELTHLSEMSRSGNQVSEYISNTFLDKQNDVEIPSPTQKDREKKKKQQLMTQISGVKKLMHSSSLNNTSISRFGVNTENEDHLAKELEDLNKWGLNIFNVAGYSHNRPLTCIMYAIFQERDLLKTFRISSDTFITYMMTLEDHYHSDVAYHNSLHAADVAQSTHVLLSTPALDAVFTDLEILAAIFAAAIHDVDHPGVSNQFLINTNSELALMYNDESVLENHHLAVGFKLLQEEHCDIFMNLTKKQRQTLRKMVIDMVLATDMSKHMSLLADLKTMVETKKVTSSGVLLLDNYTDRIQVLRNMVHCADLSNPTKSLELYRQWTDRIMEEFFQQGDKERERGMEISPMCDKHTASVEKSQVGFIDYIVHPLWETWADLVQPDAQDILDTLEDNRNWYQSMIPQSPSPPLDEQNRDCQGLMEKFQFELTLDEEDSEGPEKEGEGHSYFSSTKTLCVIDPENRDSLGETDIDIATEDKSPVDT",
  "assay": "Enzymatic inhibition of PDE4B long isoform in vitro",
  "format": "biochemical",
  "conditions": "for PDE4B-subtype selectivity: enzymatic assays using PDE4B1 and PDE4D7",
  "data": [
    {"smiles": "CCOc1nc(Nc2ccc(OC)cc2)nc(OCC)n1", "note": "[Compound 1]", "values": [
      {"measurement": "PDE4B-subtype selectivity", "value": "does not show PDE4B-subtype selectivity"}
    ]},
    {"smiles": "CCc1c(C)nc(-c2ccc(Cl)s2)nc1Nc1ccc(CC(=O)O)cc1", "note": "[Compound 2, reference compound]", "values": [
      {"measurement": "PDE4B-subtype selectivity", "value": "highly selective for PDE4B"}
    ]},
    {"smiles": "O=C(O)Cc1ccc(Nc2nc(-c3ccc(Cl)cc3)nc(C3CC3)n2)cc1", "note": "[Compound 9]", "values": [
      {"measurement": "IC50", "value": 770, "unit": "nM"}
    ]}
  ]
}
